Molecules are shown by their SMILES. Entries after “also recorded” stand apart in the source; their conditions may differ.

Experiment [1] has as its system superficial dorsal horn neurons. Description: In vivo single-unit recording, id chloroquine-evoked firing, spinal superfusion of antagonists. The arrangement: species or system mice. The protocol: The single-unit recording from the lumbar spinal cord was conducted as previously detailed [Akiyama T et al., Journal of neurophysiology 102(4):2176-2183 (2009); Akiyama T et al., The Journal of neuroscience: the official journal of the Society for Neuroscience 29(20):6691-6699 (2009)]. Anesthesia was induced by sodium pentobarbital (60 mg/kg ip) and maintained by supplemental injections (10-20 mg/kg/hr). A gravity-driven perfusion system allowed artificial cerebrospinal fluid (Krebs: 117 mM NaCl, 3.6 mM KCl, 2.5 mM CaCl2, 1.2 mM MgCl2, 1.2 mM NaH2PO4, 25 mM NaHCO3 and 11 mM glucose which was equilibrated with 95% 02 and 5% CO2 at 37° C.) to be superfused continually over the exposed lumbosacral spinal cord [Akiyama T et al., PloS one 6(7):e22665 (2011)]. A tungsten microelectrode recorded single-unit activity in the lumbar spinal cord. A chemical search strategy [Akiyama T et al., Journal of neurophysiology 102(4):2176-2183 2009; Akiyama T et al., The Journal of neuroscience: the official journal of the Society for Neuroscience 29(20):6691-6699 (2009)] was used to identify and isolate chloroquine-responsive units. Our search strategy was intended to maximize the chance of isolating a chloroquine-responsive neuron; it was assumed that such neurons either gave rise to ascending projections, or served as interneurons in segmental scratch-reflex circuitry, and no attempt was presently made to distinguish between these possibilities.
Briefly, a small (˜0.25 μl) intradermal (id) microinjection of chloroquine (100 μg/μl) was made in the ventral hindpaw and a spontaneously active unit in the superficial lumbar dorsal horn (depth<300 um) was isolated. After the spontaneous activity had waned, chloroquine (1 μl, 100 μg/μl) was injected again at the same site through the same needle. […] Responses were usually recorded for at least 30 minutes, although in many cases unit firing declined over a shorter period.
Action potentials were recorded to a computer and counted using Chart software (AD Instruments, Colorado Springs Colo.) and Spike2 software (CED Instruments). Ongoing responses elicited by chloroquine, histamine, or AITC were averaged at 20-second intervals before, during and after the antagonist application, and compared by one way repeated-measures analysis of variance (ANOVA) followed by post-hoc Bonferroni test, with p<0.05 set as significant. The mean firing rate was calculated over a 20-second period 40 seconds after the antagonist application, and compared by one way ANOVA followed by post-hoc Bonferroni test, with p<0.05 set as significant. The criterion for decrease in ongoing firing was >70% decrease below the ongoing activity elicited by pruritogen over a 20-second period 40 seconds after the antagonist application. Mean peak responses elicited by noxious pinch were compared by one way repeated-measures ANOVA followed by post-hoc Bonferroni test, with p<0.05 set as significant. At the end of each experiment, an electrolytic lesion was made at the spinal cord recording site. The spinal cord was postfixed in 10% buffered formalin, cut in 50 μm frozen sections, and examined under the light microscope to identify lesions.

Experiment [2] has the same test system. Description: In vivo single-unit recording, noxious pinch-evoked responses, spinal superfusion of antagonists. Also noted: species or system mice. The conditions noted are these: pinch at end of 1 min superfusion. The protocol:
Akiyama T et al., The Journal of neuroscience: the official journal of the Society for Neuroscience 29(20):6691-6699 (2009)]. Anesthesia was induced by sodium pentobarbital (60 mg/kg ip) and maintained by supplemental injections (10-20 mg/kg/hr). […] A tungsten microelectrode recorded single-unit activity in the lumbar spinal cord. A chemical search strategy [Akiyama T et al., Journal of neurophysiology 102(4):2176-2183 2009; […] Units were classified as wide dynamic range (WDR)-type if they responded in a graded manner to innocuous mechanical stimulation (brushing, cotton wisp) and noxious pinch, or nociceptive-specific (NS) if they responded to noxious pinch (and to the 55 mN von Frey stimulus) but not to the cotton wisp or brush stimuli. […] Akiyama T et al., The Journal of neuroscience: the official journal of the Society for Neuroscience 29(20):6691-6699 (2009)]. […] At the end of the antagonist superfusion, the noxious pinch stimulus was delivered again at the same site on the receptive field. Thirty minutes later, the noxious pinch stimulus was delivered in the same manner. Action potentials were recorded to a computer and counted using Chart software (AD Instruments, Colorado Springs Colo.) and Spike2 software (CED Instruments). […]

As to `N#Cc1cc2[nH]c(=O)c(=O)[nH]c2cc1[N+](=O)[O-]` [CNQX], the “chloroquine-evoked firing compared to vehicle superfusion” value in experiment [1] (40-60 s of superfusion, normalized firing, vs vehicle) is listed as “significantly attenuated chloroquine-evoked firing”. In experiment [1] (NS units, vs vehicle), the “chloroquine-evoked firing in NS cells” value is recorded as “significantly reduced”. Also, the “chloroquine-evoked firing in WDR cells” value in experiment [1] (WDR units, vs vehicle) was “significantly reduced”. Further, the “chloroquine-evoked firing, effect of spinal superfusion” value in experiment [1] (relative to chloroquine-evoked response prior to spinal superfusion) is “significantly attenuated during and after spinal superfusion; also recorded: reduced”. In addition, in experiment [2], the “noxious pinch-evoked response, effect of spinal superfusion” value is on record as “significantly reduced”.

Source of the values: US20180221435A1, “ITCH TREATMENT USING A COMBINATION OF NEUROKININ-1, GASTRIN RELEASING PEPTIDE, AND GLUTAMATE RECEPTOR ANTAGONISTS” (The Regents of the University of California, priority 2013, published 2018).
